What was measured:
Experiment in all cases: relative viability (nuclei count vs DMSO), 5 days (fraction); higher = more cells survive
Pictilisib + Dasatinib = compound: CS(=O)(=O)N1CCN(Cc2cc3nc(-c4cccc5[nH]ncc45)nc(N4CCOCC4)c3s2)CC1 [Pictilisib] + Cc1nc(Nc2ncc(C(=O)Nc3c(C)cccc3Cl)s2)cc(N2CCN(CCO)CC2)n1 [Dasatinib] (partner 0.075 µM)
Method in brief: (§1)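 Five library-drug doses in √10 steps were combined with a fixed anchor-drug dose, or a single drug was given alone, by pin tool to lung cancer cell lines in 1536-well plates the day after seeding. Nuclei were stained and counted after 5 days. Relative viability is the nuclei count in treated wells over that in vehicle wells, taken as the median of duplicate plates.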

Pictilisib + Lapatinib = compound: CS(=O)(=O)N1CCN(Cc2cc3nc(-c4cccc5[nH]ncc45)nc(N4CCOCC4)c3s2)CC1 [Pictilisib] + CS(=O)(=O)CCNCc1ccc(-c2ccc3ncnc(Nc4ccc(OCc5cccc(F)c5)c(Cl)c4)c3c2)o1 [Lapatinib] (partner 2 µM)
Method in brief: as §1

Pictilisib + Alpelisib = compound: CS(=O)(=O)N1CCN(Cc2cc3nc(-c4cccc5[nH]ncc45)nc(N4CCOCC4)c3s2)CC1 [Pictilisib] + Cc1nc(NC(=O)N2CCC[C@H]2C(N)=O)sc1-c1ccnc(C(C)(C)C(F)(F)F)c1 [Alpelisib] (partner 2 µM)
Method in brief: as §1

Pictilisib + Tozasertib = compound: CS(=O)(=O)N1CCN(Cc2cc3nc(-c4cccc5[nH]ncc45)nc(N4CCOCC4)c3s2)CC1 [Pictilisib] + Cc1cc(Nc2cc(N3CCN(C)CC3)nc(Sc3ccc(NC(=O)C4CC4)cc3)n2)n[nH]1 [Tozasertib] (partner 0.1 µM)
Method in brief: as §1

Pictilisib + Linsitinib = compound: CS(=O)(=O)N1CCN(Cc2cc3nc(-c4cccc5[nH]ncc45)nc(N4CCOCC4)c3s2)CC1 [Pictilisib] + C[C@]1(O)C[C@@H](c2nc(-c3ccc4ccc(-c5ccccc5)nc4c3)c3c(N)nccn32)C1 [Linsitinib] (partner 1 µM)
Method in brief: as §1

Cell Line	relative viability (Pictilisib + Dasatinib; first compound 0.02 µM)	relative viability (Pictilisib + Dasatinib; first compound 0.06325 µM)	relative viability (Pictilisib + Dasatinib; first compound 0.6325 µM)	relative viability (Pictilisib + Dasatinib; first compound 2 µM)	relative viability (Pictilisib + Lapatinib; first compound 0.02 µM)	relative viability (Pictilisib + Lapatinib; first compound 0.06325 µM)	relative viability (Pictilisib + Lapatinib; first compound 0.6325 µM)	relative viability (Pictilisib + Lapatinib; first compound 2 µM)	relative viability (Pictilisib + Alpelisib; first compound 0.02 µM)	relative viability (Pictilisib + Alpelisib; first compound 0.06325 µM)	relative viability (Pictilisib + Alpelisib; first compound 0.6325 µM)	relative viability (Pictilisib + Alpelisib; first compound 2 µM)	relative viability (Pictilisib + Tozasertib; first compound 0.02 µM)	relative viability (Pictilisib + Tozasertib; first compound 0.06325 µM)	relative viability (Pictilisib + Tozasertib; first compound 0.6325 µM)	relative viability (Pictilisib + Tozasertib; first compound 2 µM)	relative viability (Pictilisib + Linsitinib; first compound 0.02 µM)	relative viability (Pictilisib + Linsitinib; first compound 0.06325 µM)	relative viability (Pictilisib + Linsitinib; first compound 0.6325 µM)	relative viability (Pictilisib + Linsitinib; first compound 2 µM)
H3255	0.447	0.31	0.252	0.213	0.237	0.222	0.153	0.124	0.684	0.601	0.601	0.523	0.601	0.474	0.648	0.486	1.04	0.823	0.84	0.467
Calu-6	–	–	–	–	1.15	1.19	0.898	0.911	1.01	0.967	0.909	0.833	–	–	–	–	0.981	1.02	0.868	0.829
SW 900	0.577	0.547	0.264	0.255	–	–	–	–	–	–	–	–	0.651	0.63	0.562	0.334	–	–	–	–
NCI-H650	0.498	0.497	0.41	0.333	1.27	0.997	0.798	0.689	1.05	1.15	1	0.888	0.733	0.76	0.66	0.478	0.979	1.03	0.809	0.633
NCI-H460	0.531	0.545	0.205	0.0803	1.08	1.02	0.548	0.118	0.509	0.521	0.301	0.141	0.411	0.401	0.28	0.0523	0.78	0.733	0.154	0.0347
NCI-H2228	0.654	0.433	0.317	0.167	1.18	1.12	0.586	0.339	0.674	0.665	0.507	0.35	0.272	0.211	0.169	0.0908	0.533	0.637	0.31	0.184
NCI-H2085	0.241	0.22	0.198	0.18	0.767	0.767	0.535	0.391	1.01	0.959	0.74	0.419	0.765	0.733	0.52	0.3	0.86	0.835	0.786	0.334
HCC-366	0.537	0.566	0.193	0.0747	1.04	1	0.665	0.162	0.452	0.386	0.335	0.174	0.19	0.0882	0.0364	0.0156	0.776	0.448	0.256	0.0873
LCLC-103H	0.457	0.547	0.367	0.142	–	–	–	–	0.946	1.03	0.818	0.848	0.636	0.456	0.339	0.26	1.14	1.14	0.814	0.716
NCI-H1650	0.406	0.277	0.174	0.16	1.02	0.806	0.672	0.51	–	–	–	–	0.467	0.401	0.348	0.18	–	–	–	–
NCI-H2342	0.263	0.305	0.289	0.267	–	–	–	–	–	–	–	–	0.46	0.474	0.409	0.276	–	–	–	–
NCI-H522	0.75	0.984	0.79	0.664	–	–	–	–	–	–	–	–	0.52	0.542	0.444	0.397	–	–	–	–
EBC-1	–	–	–	–	0.237	0.208	0.237	0.204	0.904	0.836	0.67	0.295	–	–	–	–	1.02	0.966	0.768	0.195
ChaGo-K-1	0.628	0.682	0.517	0.384	–	–	–	–	–	–	–	–	0.227	0.21	0.161	0.17	–	–	–	–
IA-LM	–	–	–	–	0.926	0.79	0.678	0.364	0.732	0.982	0.749	0.418	–	–	–	–	0.482	0.7	0.757	0.249
NCI-H1703	–	–	–	–	0.939	1.33	0.405	0.247	0.435	0.314	0.227	0.195	–	–	–	–	1.19	0.634	0.347	0.137
A549	–	–	–	–	0.93	0.906	0.595	0.606	0.785	0.627	0.619	0.345	–	–	–	–	0.674	0.606	0.476	0.307
HCC-44	–	–	–	–	0.86	0.977	1.06	0.674	0.893	0.79	0.674	0.412	0.952	0.922	0.629	0.279	0.607	0.627	0.609	0.303
NCI-H1623	0.55	0.487	0.472	0.251	–	–	–	–	–	–	–	–	0.378	0.364	0.381	0.272	–	–	–	–
NCI-H1563	0.431	0.39	0.356	0.316	1	0.948	0.696	0.564	1.06	0.851	0.724	0.591	–	–	–	–	1.16	1.1	0.835	0.6
NCI-H1792	0.811	0.795	0.417	0.228	0.923	0.928	0.809	0.387	0.72	0.715	0.657	0.36	–	–	–	–	0.502	0.547	0.446	0.262

— the supplement of paper PMC10307832
